Article PMC7321560 (2020)

Columns and labels:
[1] = tested on: split dopamine aptamer (aptamer1 + aptamer2) (DNA, aptamer) TTCGCAGGTGTGGAGTGACGTCG/CGACGCCAGTTTGAAGGTTCG; assay: organic electrochemical transistor gate potential shift; details: 10 mM Tris; 0.5 μM aptamer2; highest concentration 10 μM; shift under 15 mV or reversed
[2] = tested on: split dopamine aptamer (aptamer1 + aptamer2) (DNA, aptamer) TTCGCAGGTGTGGAGTGACGTCG/CGACGCCAGTTTGAAGGTTCG; assay: square wave voltammetry (amperometric aptasensor); details: 10 mM Tris; 0.5 μM aptamer2; highest concentration 50 μM
[3] = tested on: split dopamine aptamer (aptamer1 + aptamer2) (DNA, aptamer) TTCGCAGGTGTGGAGTGACGTCG/CGACGCCAGTTTGAAGGTTCG; assay: square wave voltammetry, Langmuir fit (amperometric aptasensor); details: 10 mM Tris; 0.5 μM aptamer2; aptamer1 on gold; apparent (transducer-dependent)
[4] = tested on: split dopamine aptamer (aptamer1 + aptamer2) (DNA, aptamer) TTCGCAGGTGTGGAGTGACGTCG/CGACGCCAGTTTGAAGGTTCG; assay: organic electrochemical transistor gate potential shift, Langmuir fit; details: 10 mM Tris; 0.5 μM aptamer2; aptamer1 on gold gate; apparent (transducer-dependent)

binding [1] | binding [2] | KD [3] [µM] | KD [4] [pM] | SMILES
no | no | – | – | NCCCC(=O)O
– | – | 5 | 7 | NCCc1ccc(O)c(O)c1
no | no | – | – | N[C@@H](CCC(=O)O)C(=O)O
no | no | – | – | O=C1O[C@H]([C@@H](O)CO)C(O)=C1O
no | no | – | – | O=c1[nH]c(=O)c2[nH]c(=O)[nH]c2[nH]1
